Data reported in paper PMC3551575 (Molecular microbiology, 2011).

Tests used:
[1] = target: T1, FurX (Cupriavidus pinatubonensis, UniProt Q46UZ9); assay: affinity measurement, method only in supplement; format: binding
T1 sequence (Q46UZ9 1-342): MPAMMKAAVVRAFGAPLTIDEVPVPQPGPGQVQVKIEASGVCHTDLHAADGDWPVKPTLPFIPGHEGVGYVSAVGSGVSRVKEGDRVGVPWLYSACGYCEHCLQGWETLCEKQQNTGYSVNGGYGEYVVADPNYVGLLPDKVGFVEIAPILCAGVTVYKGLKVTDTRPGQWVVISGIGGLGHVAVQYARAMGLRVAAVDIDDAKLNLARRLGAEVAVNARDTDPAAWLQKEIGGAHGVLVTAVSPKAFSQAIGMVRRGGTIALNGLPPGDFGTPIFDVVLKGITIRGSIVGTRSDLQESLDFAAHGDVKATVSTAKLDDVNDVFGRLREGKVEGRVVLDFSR

[2] = target: FurX, Zn-dependent alcohol dehydrogenase from Cupriavidus necator JMP134 (Cupriavidus necator JMP134); assay: SEC-MALS

stoichiometry N [2] | Compound | Kd [1] [µM]
 | OCc1ccco1 [furfuryl alcohol] | > 1000
 | NC(=O)c1ccc[n+]([C@@H]2O[C@H](COP(=O)(O)OP(=O)(O)OC[C@H]3O[C@@H](n4cnc5c(N)ncnc54)[C@H](O)[C@@H]3O)[C@@H](O)[C@H]2O)c1 [NAD^+] | 87
4 | FurX, Zn-dependent alcohol dehydrogenase from Cupriavidus necator JMP134 (enzyme) | 
